According to patent US8722673B2, “Imine compounds for combating invertebrate pests” (BASF SE, priority 2008, dated 2014):

How the values were obtained:
Type in all cases: in vivo
[1] = test system: Diamond Back Moth (Plutella xylostella); test: Diamond back moth leaf-dip test on Chinese cabbage; conditions: read-out: mortality in comparison with untreated controls
Procedure: (§1) If not otherwise specified the test solutions were prepared as follow:
(§2) The active compound was dissolved at the desired concentration in a mixture of 1:1 (vol:vol) distilled water:acteon. The test solution was prepared the day it was used and in general at concentrations of […] (wt/vol).
Leaves of Chinese cabbage were dipped in test solution and air-dried. Treated leaves were placed in petri dished lined with moist filter paper. Mortality was recorded 24, 72, and 120 hours after treatment.

[2] = test system: Mediterranean Fruitfly (Ceratitis capitata); test: Mediterranean fruitfly microtiter plate diet test; conditions: 120 h, read-out: mortality in comparison with untreated controls
Procedure: For evaluating control of Mediterranean fruitfly (Ceratitis capitata) the test unit consisted of microtiter plates containing an insect diet and 50-80 C. capitata eggs.
(§3) The compounds were formulated using a solution containing 75% v/v water and 25% v/v DMSO. Different concentrations of formulated compounds were sprayed onto the insect diet at 5 μl, using a custom built micro atomizer, at two replications. After application, microtiter plates were incubated at about 28±1° C. and about 80±5% relative humidity for 5 days. Egg and larval mortality was then visually assessed.

[3] = test system: Southern Armyworm (Spodoptera eridania); test: Southern armyworm spray test on lima bean plants; conditions: 96 h, read-out: mortality in comparison with untreated controls
Procedure: (§4) The active compounds were formulated in cyclohexanone as a 10,000 ppm solution supplied in tubes. The tubes were inserted into an automated electrostatic sprayer equipped with an atomizing nozzle and served as stock solutions for which lower dilutions are made in 50% acetone:50% water (v/v). A nonionic surfactant (Kinetic®) was included in the solution at a volume of 0.01% (v/v).
Lima bean plants (variety Sieva) were grown 2 plants to a pot and selected for treatment at the 1st true leaf stage. Test solutions were sprayed onto the foliage by an automated electrostatic plant sprayer equipped with an atomizing spray nozzle. The plants were dried in the sprayer fume hood and then removed from the sprayer. Each pot was placed into perforated plastic bags with a zip closure. About 10 to 11 armyworm larvae were placed into the bag and the bags zipped closed. Test plants were maintained in a growth room at about 25° C. and about 20-40% relative humidity for 4 days, avoiding direct exposure to fluorescent light (24 hour photoperiod) to prevent trapping of heat inside the bags. Mortality and reduced feeding were assessed 4 days after treatment, compared to untreated control plants.

[4] = test system: Tobacco Budworm (Heliothis virescens); test: Tobacco budworm microtiter plate diet test; conditions: 120 h, read-out: mortality in comparison with untreated controls
Procedure: as §3, with “For evaluating control of tobacco budworm (Heliothis virescens) the test unit consisted of 96-well-microtiter plates containing an insect diet and 15-25 H. virescens eggs. The” for “The”, “at 10” for “at 5”, “plates are” for “plates were”, “mortality is” for “mortality was”

[5] = test system: Boll Weevil (Anthonomus grandis); test: Boll weevil microtiter plate diet test; conditions: 120 h, read-out: mortality in comparison with untreated controls
Procedure: as §3, with “For evaluating control of boll weevil (Anthonomus grandis) the test unit consisted of 24-well-microtiter plates containing an insect diet and 20-30 A. grandis eggs. The” for “The”, “at 20” for “at 5”, “about 23±1°” for “about 28±1°”, “about 50±5%” for “about 80±5%”

[6] = test system: Orchid Thrips (Dichromothrips corbetti); test: Orchid thrips floral-immersion test; conditions: 96 h, read-out: mortality in comparison with untreated controls
Procedure: Dichromothrips corbetti adults used for bioassay were obtained from a colony maintained continuously under laboratory conditions. For testing purposes, the test compound was diluted to a concentration of 300 ppm (wt compound: vol diluent) in a 1:1 mixture of acetone:water (vol:vol), plus 0.01% vol/vol Kinetic® surfactant.
Thrips potency of each compound was evaluated by using a floral-immersion technique. Plastic petri dishes were used as test arenas. All petals of individual, intact orchid flowers were dipped into treatment solution and allowed to dry. Treated flowers were placed into individual petri dishes along with 10-15 adult thrips. The petri dishes were then covered with lids. All test arenas were held under continuous light and a temperature of about 28° C. for duration of the assay. After 4 days, the numbers of live thrips was counted on each flower, and along inner walls of each petri dish. The level of thrips mortality was extrapolated from pre-treatment thrips numbers.

[7] = test system: Silverleaf Whitefly (Bemisia argentifolii); test: Silverleaf whitefly spray test on cotton plants; conditions: 72 h, read-out: mortality in comparison with untreated controls
Excerpt: as §4, with “were” for “are”
Cotton plants at the cotyledon stage (one plant per pot) were sprayed by an automated electrostatic plant sprayer equipped with an atomizing spray nozzle. The plants were dried in the sprayer fume hood and then removed from the sprayer. Each pot was placed into a plastic cup and about 10 to 12 whitefly adults (approximately 3-5 days old) were introduced. The insects were collected using an aspirator and a nontoxic Tygon® tubing connected to a barrier pipette tip. The tip, containing the collected insects, was then gently inserted into the soil containing the treated plant, allowing insects to crawl out of the tip to reach the foliage for feeding. Cups were covered with a reusable screened lid. Test plants were maintained in a growth room at about 25° C. and about 20-40% relative humidity for 3 days, avoiding direct exposure to fluorescent light (24 hour photoperiod) to prevent trapping of heat inside the cup. Mortality was assessed 3 days after treatment, compared to untreated control plants.

[8] = test system: Vetch Aphid (Megoura viciae); test: Vetch aphid leaf disk microtiter plate test; conditions: foliar, 120 h, read-out: mortality in comparison with untreated controls
Procedure: For evaluating control of vetch aphid (Megoura viciae) through contact or systemic means the test unit consisted of 24-well-microtiter plates containing broad bean leaf disks. The compounds were formulated using a solution containing 75% v/v water and 25% v/v DMSO. Different concentrations of formulated compounds were sprayed onto the leaf disks at 2.5 μl, using a custom built micro atomizer, at two replications. After application, the leaf disks were air-dried and 5-8 adult aphids were placed on the leaf disks inside the microtiter plate wells. The aphids were then allowed to suck on the treated leaf disks and incubated at about 23±1° C. and about 50±5% relative humidity for 5 days. Aphid mortality and fecundity was then visually assessed.

[9] = test system: Cowpea Aphid (Aphis craccivora); test: Cowpea aphid spray test on potted cowpea plants; conditions: 500 ppm; population reduction assessed after 24, 72 and 120 hours
Procedure: as §1, §2
Potted cowpea plants colonized with approximately 100-150 aphids of various stages were sprayed after the pest population had been recorded. Population reduction was assessed after 24, 72, and 120 hours.

Row | Structure (SMILES) | mortality at 300 ppm [1] [%] | mortality at 300 ppm [3] [%] | mortality at 2500 ppm [4] [%] | mortality at 2500 ppm [5] [%] | also measured
1 | COC(=NO)c1ccc(C2=NOC(c3cc(Cl)cc(Cl)c3)(C(F)(F)F)C2)cc1C (single isomer, unassigned) [Compound 1-30, 4-[5-(3,5-Dichloro-phenyl)-5-trifluoromethyl-4,5-dihydro-isoxazol-3-yl]-N-hydroxy-2-methyl-benzimidic acid methyl ester] | ≥ 75 | ≥ 75 | ≥ 75 | ≥ 75 | mortality at 2500 ppm [2]: ≥ 75%
2 | CC(=NO)c1ccc(C2=NOC(c3cc(Cl)cc(Cl)c3)(C(F)(F)F)C2)cc1C (centres unmarked) [Compound 1-17, 1-{4-[5-(3,5-Dichloro-phenyl)-5-trifluoromethyl-4,5-dihydro-isoxazol-3-yl]-2-methyl-phenyl}-ethanone oxime] | ≥ 75 |  | ≥ 75 | ≥ 75 | mortality at 300 ppm [6]: ≥ 75%
3 | Cc1cc(C2=NOC(c3cc(Cl)cc(Cl)c3)(C(F)(F)F)C2)ccc1/C=N/NC(=O)c1ccccn1 (centres unmarked) [Compound 1-45, Pyridine-2-carboxylic acid [1-{4-[5-(3,5-dichloro-phenyl)-5-trifluoromethyl-4,5-dihydro-isoxazol-3-yl]-2-methyl-phenyl}-meth-(E)-ylidene]-hydrazide] |  |  | ≥ 75 | ≥ 75 | 
4 | Cc1cc(C2=NOC(c3cc(Cl)cc(Cl)c3)(C(F)(F)F)C2)ccc1C(CC(C)C)=NO (centres unmarked) [Compound 1-55, 1-{4-[5-(3,5-Dichloro-phenyl)-5-trifluoromethyl-4,5-dihydro-isoxazol-3-yl]-2-methyl-phenyl}-3-methyl-butan-1-one oxime] | ≥ 75 |  | ≥ 75 | ≥ 75 | 
5 | Cc1cc(C2=NOC(c3cc(Cl)cc(Cl)c3)(C(F)(F)F)C2)ccc1/C=N/OCC(=O)O (centres unmarked) [Compound 1-12, [1-{4-[5-(3,5-Dichloro-phenyl)-5-trifluoromethyl-4,5-dihydro-isoxazol-3-yl]-2-methyl-phenyl}-meth-(E)-ylideneaminooxy]-acetic acid] |  |  | ≥ 75 |  | mortality at 300 ppm [7]: ≥ 75%; mortality at 2500 ppm [8]: ≥ 75%
6 | Cc1cc(C2=NOC(c3cc(Cl)cc(Cl)c3)(C(F)(F)F)C2)ccc1/C=N/OCC(=O)N1CCOCC1 (centres unmarked) [Compound 1-16] |  |  |  |  | mortality in comparison with untreated controls [9]: at least 75%
7 | Cc1cc(C2=NOC(c3cc(Cl)cc(Cl)c3)(C(F)(F)F)C2)ccc1/C=N/OCC(=O)NCC(F)(F)F (centres unmarked) [Compound 1-9, 2-[1-{4-[5-(3,5-Dichloro-phenyl)-5-trifluoromethyl-4,5-dihydro-isoxazol-3-yl]-2-methyl-phenyl}-meth-(E)-ylideneaminooxy]-N-(2,2,2-trifluoro-ethyl)-acetamide] | ≥ 75 | ≥ 75 | ≥ 75 | ≥ 75 | 
8 | COC(=NO)c1ccc(C2=NOC(c3cc(Cl)cc(Cl)c3)(C(F)(F)F)C2)cc1C (single isomer, unassigned) [Compound 1-31, 4-[5-(3,5-Dichloro-phenyl)-5-trifluoromethyl-4,5-dihydro-isoxazol-3-yl]-N-hydroxy-2-methyl-benzimidic acid methyl ester] |  |  |  |  | mortality at 2500 ppm [8]: ≥ 75%
9 | Cc1cc(C2=NOC(c3cc(Cl)cc(Cl)c3)(C(F)(F)F)C2)ccc1/C=N/OCC(=O)OC(C)(C)C (centres unmarked) [Compound 1-13, [1-{4-[5-(3,5-Dichloro-phenyl)-5-trifluoromethyl-4,5-dihydro-isoxazol-3-yl]-2-methyl-phenyl}-meth-(E)-ylideneaminooxy]-acetic acid tert-butyl ester] | ≥ 75 | ≥ 75 | ≥ 75 |  | 
